Laboratory results from paper PMC9788509, “Arginine Homopeptide of 11 Residues as a Model of Cell-Penetrating Peptides in the Interaction with Bacterial Membranes” (Membranes, 2022).
Where “and” joins values, the source holds several entries; their conditions need not be identical. Equal values may be shown once. No end group written: not given here.

Tests used:
[1] = tested on: Staphylococcus aureus (ATCC 25923); type: cell-based; details: S. aureus ATCC 25923; 1 × 10^7 CFU/mL; 1% TSB, 10 mM Hepes; 10, 20 and 30 μM peptide, 1 h at 37 °C; serial dilution, 18 h at 37 °C in complete TSB; turbidity; duplicate
Protocol: (§1) The strains used, Staphylococcus aureus (ATCC 25923) and Escherichia coli (ML35), were obtained from the Public Health Institute of Chile (ISP).
(§2) To determine the antibacterial activity of the peptides, a microplate dilution test was performed. The necessary calculations were completed with a bacterial concentration of 1 × 10^7 CFU/mL and the cells were exposed to 50 µL of Tryptic soy broth (TSB) with 1%, 10 mM of Hepes buffer and 10, 20 and 30 μM of peptide for 1 h at 37 °C. Finally, a serial dilution was performed and incubated for 18 h at 37 °C in complete TSB, and the minimum bactericidal concentration (MCB) was determined depending on the turbidity of the plate. All experiments were completed in duplicate. A synthetic peptide of sequence KKWRWWLKALAKK from the venom of the Bothrops asper snake was used as a positive control for growth inhibition.

[2] = tested on: Escherichia coli (ML35); type: cell-based; details: E. coli ML35; 1 × 10^7 CFU/mL; 1% TSB, 10 mM Hepes; 10, 20 and 30 μM peptide, 1 h at 37 °C; serial dilution, 18 h at 37 °C in complete TSB; turbidity; duplicate
Protocol: as §1, §2

[3] = tested on: E coli; assay: Membrane permeabilization by SYTOX green assay; type: cell-based, Escherichia coli; details: E. coli 1 × 10^6 CFU/mL in PBS 1X; 90 µL bacteria, 5 µL peptide at 200 µM, 5 µL SYTOX Green at 100 µM; 30 cycles of one minute at 30 °C; triplicate
Protocol: (§3) To verify the effect of peptides on cell membrane integrity, a SYTOX green uptake assay was used, as previously described. Briefly, E coli and S. aureus cultures in exponential phase of growth were centrifuged at 2000× g for 5 min and washed with PBS 1X to prepare a solution at a concentration of 1 × 10^6 CFU/mL in PBS 1X. Then, in 100 μL qPCR tubes, 90 µL of the bacterial solution, 5 µL of peptide at 200 µM and 5 µL of SYTOX Green dye at 100 µM were added. The q-PCR tubes were placed in an Applied Biosystems StepOnePlus™ Real-Time PCR Systems thermocycler, programmed with 30 cycles for one minute at 30 °C, using the Syber green filter, recording the fluorescence data at the end of each cycle. Each assay was performed in triplicate.

[4] = tested on: S. aureus; assay: Membrane permeabilization by SYTOX green assay; type: cell-based, Staphylococcus aureus; details: S. aureus 1 × 10^6 CFU/mL in PBS 1X; 90 µL bacteria, 5 µL peptide at 200 µM, 5 µL SYTOX Green at 100 µM; 30 cycles of one minute at 30 °C; triplicate
Protocol: as §3

[5] = tested on: blood samples obtained from a healthy individual; type: cell-based
Protocol: The hemolytic activity of the peptides was obtained, according to a previously described procedure. Briefly, blood samples obtained from a healthy individual were centrifuged at 2000 g for 10 min at 4 °C and then washed with PBS 1X three times. The supernatant was diluted with PBS 1X until reaching a concentration of 6 × 10^8 cells/mL. Assays were performed in duplicate with the peptides at concentrations of 5 and 50 µM, including AMP from Bothrops asper. Triton X-100 (Sigma Aldrich) at 0.5% was used as positive control and PBS 1X as negative control. The assay is performed by mixing 65 µL of the cell suspension with 65 µL of each peptide at the indicated concentrations, and 65 µL of each control, incubating at 37 °C for 1 h. The samples are centrifuged at 3000 g for 5 min; 80 µL of supernatant is taken and placed in a 96-well plate together with 80 µL of milliQ water to finally measure its absorbance at 540 nm.
Hemolysis is calculated according to Equation (1). (1) %Hemolysis=[…]

Row | Molecule | Percentage of polyproline II, Equation (2) | Minimum Bactericidal Concentration [1] | Minimum Bactericidal Concentration [2] | SYTOX green fluorescence (membrane permeabilization) [3] | SYTOX green fluorescence (membrane permeabilization) [4] | Hemolytic activity [5]
1 | C[C@H](NC(=O)[C@H](CCCNC(=N)N)NC(=O)[C@H](CCCNC(=N)N)NC(=O)[C@H](CCCNC(=N)N)NC(=O)[C@H](CCCNC(=N)N)NC(=O)[C@H](CCCNC(=N)N)NC(=O)[C@H](CCCNC(=N)N)NC(=O)[C@H](CCCNC(=N)N)NC(=O)[C@H](CCCNC(=N)N)NC(=O)[C@H](CCCNC(=N)N)NC(=O)[C@@H](N)CCCNC(=N)N)C(N)=O [A11] | 49% (2×) and 45% and 50% | 8 µM | 20 µM | – | – | –
2 | KKWRWWLKALAKK | – | – | – | high fluorescence | high fluorescence | –
3 | RRRRRRRPRRR-NH2 [P8] | 49% (2×) and 40% and 50% | 9 µM | 30 µM | – | – | –
4 | RRRRRRRRPRR-NH2 [P9] | 41% (2×) and 27% and 43% | 10 µM | 20 µM | – | – | –
5 | RWRRRRRRRRR-NH2 [W2] | 56% (2×) and 64% and 47% | 30 µM | >30 µM | – | – | –
6 | triton X-100 | – | – | – | – | – | hemolysis was only observed
